Laboratory results from ChEMBL document CHEMBL5723584 (2023).
Active and inactive are the calls of the source. The rule behind the calls is not given here.

Columns and labels:
[1] = molecular target: Aurora kinase B (Homo sapiens, UniProt Q96GD4); assay: Promega NanoBRET (AURKB)
[2] = molecular target: Serine/threonine-protein kinase PLK2 (Homo sapiens) (UniProt Q9NYY3); assay: activity of Snk(h) at 1.0 µM in the Eurofins Kinase panel; settings: Compound concentration 1.0 uM
[3] = molecular target: Protein kinase C beta type (Homo sapiens) (UniProt P05771); assay: activity of PKCbetaI(h) at 1.0 µM in the Eurofins Kinase panel; settings: Compound concentration 1.0 uM
[4] = molecular target: Serine/threonine-protein kinase MARK2 (Homo sapiens) (UniProt Q7KZI7); assay: activity of PAR-1Balpha(h) at 1.0 µM in the Eurofins Kinase panel; settings: Compound concentration 1.0 uM
[5] = molecular target: Mitogen-activated protein kinase 14 (Homo sapiens) (UniProt Q16539); assay: activity of SAPK2a(h) at 1.0 µM in the Eurofins Kinase panel; settings: Compound concentration 1.0 uM
[6] = molecular target: Serine/threonine-protein kinase Nek3 (Homo sapiens) (UniProt P51956); assay: activity of NEK3(h) at 1.0 µM in the Eurofins Kinase panel; settings: Compound concentration 1.0 uM
[7] = molecular target: Insulin-like growth factor 1 receptor (Homo sapiens) (UniProt P08069); assay: activity of IGF-1R(h) at 1.0 µM in the Eurofins Kinase panel; settings: Compound concentration 1.0 uM
[8] = molecular target: 5'-AMP-activated protein kinase catalytic subunit alpha-1 (Homo sapiens) (UniProt Q13131); assay: activity of AMPKalpha1(h) at 1.0 µM in the Eurofins Kinase panel; settings: Compound concentration 1.0 uM
[9] = molecular target: CDK17/Cyclin-Y (Homo sapiens) (UniProt Q00537+Q8ND76); assay: activity of CDK17/cyclinY(h) at 1.0 µM in the Eurofins Kinase panel; assay type: protein-complex assay; settings: Compound concentration 1.0 uM
[10] = molecular target: Casein kinase I isoform epsilon (Homo sapiens) (UniProt P49674); assay: activity of CK1epsilon(h) at 1.0 µM in the Eurofins Kinase panel; settings: Compound concentration 1.0 uM
[11] = molecular target: Serine/threonine-protein kinase Sgk1 (Homo sapiens) (UniProt O00141); assay: activity of SGK(h) at 1.0 µM in the Eurofins Kinase panel; settings: Compound concentration 1.0 uM
[12] = molecular target: Cyclin-dependent kinase-like 2 (Homo sapiens) (UniProt Q92772); assay: activity of CDKL2(h) at 1.0 µM in the Eurofins Kinase panel; settings: Compound concentration 1.0 uM
[13] = molecular target: Testis-specific serine/threonine-protein kinase 3 (Homo sapiens) (UniProt Q96PN8); assay: activity of TSSK3(h) at 1.0 µM in the Eurofins Kinase panel; settings: Compound concentration 1.0 uM
[14] = molecular target: Tyrosine-protein kinase receptor TYRO3 (Homo sapiens) (UniProt Q06418); assay: activity of Rse(h) at 1.0 µM in the Eurofins Kinase panel; settings: Compound concentration 1.0 uM
[15] = molecular target: Dual specificity tyrosine-phosphorylation-regulated kinase 1A (Homo sapiens) (UniProt Q13627); assay: activity of DYRK1A(h) at 1.0 µM in the Eurofins Kinase panel; settings: Compound concentration 1.0 uM
[16] = molecular target: Serine/threonine-protein kinase Sgk2 (Homo sapiens) (UniProt Q9HBY8); assay: activity of SGK2(h) at 1.0 µM in the Eurofins Kinase panel; settings: Compound concentration 1.0 uM
[17] = molecular target: Tyrosine-protein kinase JAK3 (Homo sapiens) (UniProt P52333); assay: activity of JAK3(h) at 1.0 µM in the Eurofins Kinase panel; settings: Compound concentration 1.0 uM
[18] = molecular target: Serine/threonine-protein kinase TAO1 (Homo sapiens) (UniProt Q7L7X3); assay: activity of TAO1(h) at 1.0 µM in the Eurofins Kinase panel; settings: Compound concentration 1.0 uM
[19] = molecular target: Serine/threonine-protein kinase 25 (Homo sapiens) (UniProt O00506); assay: activity of STK25(h) at 1.0 µM in the Eurofins Kinase panel; settings: Compound concentration 1.0 uM
[20] = molecular target: MAP kinase-activated protein kinase 2 (Homo sapiens) (UniProt P49137); assay: activity of MAPKAP-K2(h) at 1.0 µM in the Eurofins Kinase panel; settings: Compound concentration 1.0 uM
[21] = molecular target: Casein kinase II subunit alpha (Homo sapiens) (UniProt P68400); assay: activity of CK2alpha1(h) at 1.0 µM in the Eurofins Kinase panel; settings: Compound concentration 1.0 uM
[22] = molecular target: Vascular endothelial growth factor receptor 3 (Homo sapiens) (UniProt P35916); assay: activity of Flt4(h) at 1.0 µM in the Eurofins Kinase panel; settings: Compound concentration 1.0 uM
[23] = molecular target: Calcium/calmodulin-dependent protein kinase type 1 (Homo sapiens) (UniProt Q14012); assay: activity of CaMKI(h) at 1.0 µM in the Eurofins Kinase panel; settings: Compound concentration 1.0 uM
[24] = molecular target: RAC-beta serine/threonine-protein kinase (Homo sapiens) (UniProt P31751); assay: activity of PKBbeta(h) at 1.0 µM in the Eurofins Kinase panel; settings: Compound concentration 1.0 uM
[25] = molecular target: NUAK family SNF1-like kinase 1 (Homo sapiens) (UniProt O60285); assay: activity of ARK5(h) at 1.0 µM in the Eurofins Kinase panel; settings: Compound concentration 1.0 uM
[26] = molecular target: Citron Rho-interacting kinase (Homo sapiens, UniProt O14578); assay: NanoLuc NanoBRET (CITKD); settings: read-out: Kd
[27] = molecular target: Dual specificity protein kinase CLK1 (Homo sapiens) (UniProt P49759); assay: activity of CLK1(h) at 1.0 µM in the Eurofins Kinase panel; settings: Compound concentration 1.0 uM
[28] = molecular target: Serine/threonine-protein kinase BRSK1 (Homo sapiens) (UniProt Q8TDC3); assay: activity of BrSK1(h) at 1.0 µM in the Eurofins Kinase panel; settings: Compound concentration 1.0 uM
[29] = molecular target: Mitogen-activated protein kinase kinase kinase 10 (Homo sapiens) (UniProt Q02779); assay: activity of MLK2(h) at 1.0 µM in the Eurofins Kinase panel; settings: Compound concentration 1.0 uM
[30] = molecular target: Serine-protein kinase ATM (Homo sapiens) (UniProt Q13315); assay: activity of ATM(h) at 1.0 µM in the Eurofins Kinase panel; settings: Compound concentration 1.0 uM
[31] = molecular target: Serine/threonine-protein kinase PAK 1 (Homo sapiens) (UniProt Q13153); assay: activity of PAK1(h) at 1.0 µM in the Eurofins Kinase panel; settings: Compound concentration 1.0 uM
[32] = molecular target: Serine/threonine-protein kinase Nek4 (Homo sapiens) (UniProt P51957); assay: activity of NEK4(h) at 1.0 µM in the Eurofins Kinase panel; settings: Compound concentration 1.0 uM
[33] = molecular target: cGMP-dependent protein kinase 1 (Homo sapiens) (UniProt Q13976); assay: activity of PKG1beta(h) at 1.0 µM in the Eurofins Kinase panel; settings: Compound concentration 1.0 uM
[34] = molecular target: Serine/threonine-protein kinase MRCK alpha (Homo sapiens) (UniProt Q5VT25); assay: activity of MRCKalpha(h) at 1.0 µM in the Eurofins Kinase panel; settings: Compound concentration 1.0 uM
[35] = molecular target: Serine/threonine-protein kinase MRCK gamma (Homo sapiens) (UniProt Q6DT37); assay: activity of MRCKgamma(h) at 1.0 µM in the Eurofins Kinase panel; settings: Compound concentration 1.0 uM
[36] = molecular target: NT-3 growth factor receptor (Homo sapiens) (UniProt Q16288); assay: activity of TrkC(h) at 1.0 µM in the Eurofins Kinase panel; settings: Compound concentration 1.0 uM
[37] = molecular target: Calcium/calmodulin-dependent protein kinase type 1B (Homo sapiens) (UniProt Q6P2M8); assay: activity of CaMKIbeta(h) at 1.0 µM in the Eurofins Kinase panel; settings: Compound concentration 1.0 uM
[38] = molecular target: Glycogen synthase kinase-3 alpha (Homo sapiens) (UniProt P49840); assay: activity of GSK3alpha(h) at 1.0 µM in the Eurofins Kinase panel; settings: Compound concentration 1.0 uM
[39] = molecular target: Serine/threonine-protein kinase Sgk3 (Homo sapiens) (UniProt Q96BR1); assay: activity of SGK3(h) at 1.0 µM in the Eurofins Kinase panel; settings: Compound concentration 1.0 uM
Sequence of Serine/threonine-protein kinase Sgk3 (Homo sapiens) (Q96BR1 whole entry): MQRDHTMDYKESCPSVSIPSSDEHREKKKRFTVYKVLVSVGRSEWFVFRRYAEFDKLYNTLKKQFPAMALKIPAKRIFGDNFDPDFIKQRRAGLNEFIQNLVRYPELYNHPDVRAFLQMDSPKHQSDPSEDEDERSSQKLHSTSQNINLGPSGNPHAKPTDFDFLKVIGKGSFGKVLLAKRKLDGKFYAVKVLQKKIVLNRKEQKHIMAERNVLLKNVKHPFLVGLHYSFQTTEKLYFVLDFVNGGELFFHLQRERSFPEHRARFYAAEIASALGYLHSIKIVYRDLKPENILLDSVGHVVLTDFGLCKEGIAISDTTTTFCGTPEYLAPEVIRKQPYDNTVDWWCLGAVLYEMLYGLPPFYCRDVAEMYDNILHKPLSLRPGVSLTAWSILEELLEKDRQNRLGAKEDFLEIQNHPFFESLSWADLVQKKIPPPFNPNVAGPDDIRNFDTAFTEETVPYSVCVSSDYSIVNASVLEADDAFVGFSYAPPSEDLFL

Sequence of Serine/threonine-protein kinase Sgk1 (Homo sapiens) (O00141 whole entry): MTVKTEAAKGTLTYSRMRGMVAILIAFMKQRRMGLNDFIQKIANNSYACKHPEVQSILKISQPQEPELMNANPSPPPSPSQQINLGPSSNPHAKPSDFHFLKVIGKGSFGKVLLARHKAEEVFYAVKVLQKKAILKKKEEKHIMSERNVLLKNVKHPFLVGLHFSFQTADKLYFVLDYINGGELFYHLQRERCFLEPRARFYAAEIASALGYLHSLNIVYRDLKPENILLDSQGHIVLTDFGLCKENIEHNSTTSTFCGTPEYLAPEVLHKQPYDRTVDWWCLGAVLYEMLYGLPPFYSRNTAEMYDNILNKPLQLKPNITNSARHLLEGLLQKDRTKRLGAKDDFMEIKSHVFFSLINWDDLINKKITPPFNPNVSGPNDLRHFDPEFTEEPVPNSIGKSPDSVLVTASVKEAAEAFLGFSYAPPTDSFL
Sequence of Vascular endothelial growth factor receptor 3 (Homo sapiens) (P35916 whole entry): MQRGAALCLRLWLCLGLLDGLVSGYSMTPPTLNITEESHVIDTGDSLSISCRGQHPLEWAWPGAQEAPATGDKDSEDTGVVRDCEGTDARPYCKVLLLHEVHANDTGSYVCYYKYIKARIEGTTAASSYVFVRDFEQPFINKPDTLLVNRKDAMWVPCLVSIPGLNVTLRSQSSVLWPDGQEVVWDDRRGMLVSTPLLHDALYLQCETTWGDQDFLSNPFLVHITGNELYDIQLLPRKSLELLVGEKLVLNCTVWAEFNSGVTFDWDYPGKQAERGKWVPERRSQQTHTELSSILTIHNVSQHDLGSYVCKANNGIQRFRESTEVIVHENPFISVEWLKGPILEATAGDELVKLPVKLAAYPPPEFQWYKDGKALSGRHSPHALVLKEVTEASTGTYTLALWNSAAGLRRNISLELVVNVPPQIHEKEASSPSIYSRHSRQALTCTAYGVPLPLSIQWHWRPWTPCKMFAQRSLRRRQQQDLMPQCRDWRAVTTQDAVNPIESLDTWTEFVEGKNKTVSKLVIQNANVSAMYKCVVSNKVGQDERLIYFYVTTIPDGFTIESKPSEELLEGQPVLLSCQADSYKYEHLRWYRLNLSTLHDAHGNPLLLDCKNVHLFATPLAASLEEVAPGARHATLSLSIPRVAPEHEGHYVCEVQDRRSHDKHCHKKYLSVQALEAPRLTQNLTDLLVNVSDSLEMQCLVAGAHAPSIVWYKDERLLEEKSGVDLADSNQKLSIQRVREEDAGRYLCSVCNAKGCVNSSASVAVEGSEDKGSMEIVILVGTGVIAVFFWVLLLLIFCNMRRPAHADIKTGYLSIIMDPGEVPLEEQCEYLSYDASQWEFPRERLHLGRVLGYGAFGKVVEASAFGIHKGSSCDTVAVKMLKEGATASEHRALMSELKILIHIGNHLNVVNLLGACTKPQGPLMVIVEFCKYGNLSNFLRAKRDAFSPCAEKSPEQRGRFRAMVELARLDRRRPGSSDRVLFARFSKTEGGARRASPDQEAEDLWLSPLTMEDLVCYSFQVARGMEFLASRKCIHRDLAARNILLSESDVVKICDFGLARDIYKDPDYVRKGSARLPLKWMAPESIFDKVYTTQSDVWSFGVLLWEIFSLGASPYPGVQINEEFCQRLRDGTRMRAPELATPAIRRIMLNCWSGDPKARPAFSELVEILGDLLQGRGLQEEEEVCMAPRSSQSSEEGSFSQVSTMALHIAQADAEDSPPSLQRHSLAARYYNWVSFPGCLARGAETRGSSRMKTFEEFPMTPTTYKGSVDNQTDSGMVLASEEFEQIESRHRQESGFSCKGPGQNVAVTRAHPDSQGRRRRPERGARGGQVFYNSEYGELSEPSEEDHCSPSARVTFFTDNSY
Sequence of Serine/threonine-protein kinase MARK2 (Homo sapiens) (Q7KZI7 whole entry): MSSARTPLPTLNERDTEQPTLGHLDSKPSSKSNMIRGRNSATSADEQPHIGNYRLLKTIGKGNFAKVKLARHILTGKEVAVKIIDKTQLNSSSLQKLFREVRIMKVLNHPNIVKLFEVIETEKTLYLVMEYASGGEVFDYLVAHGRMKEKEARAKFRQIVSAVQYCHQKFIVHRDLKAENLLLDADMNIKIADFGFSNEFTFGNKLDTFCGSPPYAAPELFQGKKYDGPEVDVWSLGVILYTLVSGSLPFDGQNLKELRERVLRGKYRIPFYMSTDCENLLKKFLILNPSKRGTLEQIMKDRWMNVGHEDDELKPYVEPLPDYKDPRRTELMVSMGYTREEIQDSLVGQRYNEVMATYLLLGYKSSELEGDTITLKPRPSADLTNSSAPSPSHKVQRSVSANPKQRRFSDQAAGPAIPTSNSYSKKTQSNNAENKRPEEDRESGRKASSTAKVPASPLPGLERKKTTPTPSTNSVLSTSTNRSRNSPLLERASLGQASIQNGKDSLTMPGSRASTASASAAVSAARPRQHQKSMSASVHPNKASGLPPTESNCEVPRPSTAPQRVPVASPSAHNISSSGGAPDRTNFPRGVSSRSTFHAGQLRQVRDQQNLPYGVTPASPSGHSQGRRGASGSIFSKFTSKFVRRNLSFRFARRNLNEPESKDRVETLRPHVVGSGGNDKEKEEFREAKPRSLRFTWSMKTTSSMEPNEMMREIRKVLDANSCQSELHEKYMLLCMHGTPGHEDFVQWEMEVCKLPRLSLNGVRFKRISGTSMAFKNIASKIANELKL
Sequence of cGMP-dependent protein kinase 1 (Homo sapiens) (Q13976 whole entry): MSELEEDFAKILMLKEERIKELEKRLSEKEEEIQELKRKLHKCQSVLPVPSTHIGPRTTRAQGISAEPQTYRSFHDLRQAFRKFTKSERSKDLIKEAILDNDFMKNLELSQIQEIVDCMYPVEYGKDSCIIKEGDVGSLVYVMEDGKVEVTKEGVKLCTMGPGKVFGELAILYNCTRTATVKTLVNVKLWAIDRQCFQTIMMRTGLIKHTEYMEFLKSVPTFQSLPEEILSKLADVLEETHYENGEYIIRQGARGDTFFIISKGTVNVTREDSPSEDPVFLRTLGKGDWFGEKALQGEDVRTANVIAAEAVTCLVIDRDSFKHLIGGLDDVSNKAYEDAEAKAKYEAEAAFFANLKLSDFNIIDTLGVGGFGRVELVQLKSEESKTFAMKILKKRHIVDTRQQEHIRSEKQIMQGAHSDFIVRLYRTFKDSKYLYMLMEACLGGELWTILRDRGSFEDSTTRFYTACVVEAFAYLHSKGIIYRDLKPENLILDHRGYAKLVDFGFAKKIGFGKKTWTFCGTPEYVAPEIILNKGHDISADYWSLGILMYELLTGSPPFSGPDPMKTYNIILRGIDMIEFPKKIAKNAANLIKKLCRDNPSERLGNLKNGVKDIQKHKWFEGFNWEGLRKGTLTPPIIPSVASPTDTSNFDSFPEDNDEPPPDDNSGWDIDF
Sequence of MAP kinase-activated protein kinase 2 (Homo sapiens) (P49137 whole entry, looked up): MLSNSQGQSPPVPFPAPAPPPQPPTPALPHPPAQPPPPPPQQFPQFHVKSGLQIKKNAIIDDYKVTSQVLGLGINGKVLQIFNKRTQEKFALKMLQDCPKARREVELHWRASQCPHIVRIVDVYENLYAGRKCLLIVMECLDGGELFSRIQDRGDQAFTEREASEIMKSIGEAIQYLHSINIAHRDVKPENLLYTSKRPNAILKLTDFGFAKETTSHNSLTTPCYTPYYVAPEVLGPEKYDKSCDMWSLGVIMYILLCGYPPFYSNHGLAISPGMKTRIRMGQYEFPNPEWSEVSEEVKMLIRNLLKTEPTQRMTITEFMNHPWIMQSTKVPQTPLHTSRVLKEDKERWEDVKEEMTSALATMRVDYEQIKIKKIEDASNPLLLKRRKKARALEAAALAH
Sequence of Testis-specific serine/threonine-protein kinase 3 (Homo sapiens) (Q96PN8 whole entry): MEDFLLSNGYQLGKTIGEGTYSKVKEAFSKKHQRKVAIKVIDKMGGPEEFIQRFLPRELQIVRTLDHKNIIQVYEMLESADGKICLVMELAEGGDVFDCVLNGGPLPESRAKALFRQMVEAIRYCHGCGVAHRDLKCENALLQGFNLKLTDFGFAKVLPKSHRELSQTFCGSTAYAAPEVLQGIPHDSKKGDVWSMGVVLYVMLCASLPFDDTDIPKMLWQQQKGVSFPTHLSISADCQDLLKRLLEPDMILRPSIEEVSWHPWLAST
Sequence of Casein kinase I isoform epsilon (Homo sapiens) (P49674 whole entry, looked up, canonical isoform): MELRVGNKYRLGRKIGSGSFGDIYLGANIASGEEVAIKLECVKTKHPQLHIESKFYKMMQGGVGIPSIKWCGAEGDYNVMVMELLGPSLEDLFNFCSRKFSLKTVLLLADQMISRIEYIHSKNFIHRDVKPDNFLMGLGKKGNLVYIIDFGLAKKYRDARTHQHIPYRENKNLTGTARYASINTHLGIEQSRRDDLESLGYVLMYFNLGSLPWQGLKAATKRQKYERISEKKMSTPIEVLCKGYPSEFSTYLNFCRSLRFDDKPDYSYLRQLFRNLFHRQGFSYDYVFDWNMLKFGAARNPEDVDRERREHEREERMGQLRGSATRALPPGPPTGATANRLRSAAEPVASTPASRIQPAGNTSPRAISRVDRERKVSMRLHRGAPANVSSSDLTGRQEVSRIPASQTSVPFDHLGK

Cc1cc2c(-c3ccc(NC(=O)[C@H](N)CC(C)(C)C)cc3C)ccnc2[nH]1
IC50 [1]: > 10 µM (not active)
activity [2]: 94%
activity [3]: 90%
activity [4]: 88%
activity [5]: 94%
activity [6]: 110%
activity [7]: 98%
activity [8]: 120%
activity [9]: 108%
activity [10]: 96%
activity [11]: 113%
activity [12]: 80%
activity [13]: 96%
activity [14]: 129%
activity [15]: 112%
activity [16]: 82%
activity [17]: 106%
activity [18]: 83%
activity [19]: 92%
activity [20]: 72%
activity [21]: 112%
activity [22]: 96%
activity [23]: 104%
activity [24]: 109%
activity [25]: 85%
Kd [26]: 0.0003 µM (active)
activity [27]: 88%
activity [28]: 96%
activity [29]: 77%
activity [30]: 103%
activity [31]: 95%
activity [32]: 90%
activity [33]: 92%
activity [34]: 94%
activity [35]: 98%
activity [36]: 86%
activity [37]: 85%
activity [38]: 87%
activity [39]: 102%
